Publication PMC7288138, “Development of Novel Analogs of the Monocarboxylate Transporter Ligand FACH and Biological Validation of One Potential Radiotracer for Positron Emission Tomography (PET) Imaging” (Molecules, 2020)

Target: T1, MCT1 (monocarboxylate transporter 1) (Rattus norvegicus, UniProt P53987)
T1 construct: gene Slc16a1
T1 sequence (P53987 1-494): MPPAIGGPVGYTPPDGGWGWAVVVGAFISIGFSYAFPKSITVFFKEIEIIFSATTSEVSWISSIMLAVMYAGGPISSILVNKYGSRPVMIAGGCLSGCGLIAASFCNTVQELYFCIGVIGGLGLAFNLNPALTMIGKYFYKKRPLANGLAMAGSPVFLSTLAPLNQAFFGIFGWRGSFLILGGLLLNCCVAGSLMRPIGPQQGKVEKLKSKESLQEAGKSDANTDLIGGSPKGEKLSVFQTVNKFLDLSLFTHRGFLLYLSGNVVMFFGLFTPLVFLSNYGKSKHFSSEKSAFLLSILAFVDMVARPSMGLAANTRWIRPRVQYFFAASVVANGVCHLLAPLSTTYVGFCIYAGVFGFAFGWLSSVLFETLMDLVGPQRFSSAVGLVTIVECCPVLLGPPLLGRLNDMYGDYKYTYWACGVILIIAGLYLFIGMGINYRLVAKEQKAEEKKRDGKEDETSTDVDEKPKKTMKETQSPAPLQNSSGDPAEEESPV
Assay: […]lactate uptake inhibition in RBE4 rat brain endothelial cells (only MCT1 isoform expressed)
Assay type: cell-based

| IC50 [nM] | Compound |
| --- | --- |
| 118 | CCCN(c1ccc(/C=C(\C#N)C(=O)O)c(OC)c1)c1cccc(F)n1 [compound 1, (E)-2-Cyano-3-(4-((6-fluoropyridin-2-yl)(propyl)amino)-2-methoxyphenyl)acrylic Acid] |
| 274 | COc1cc(N(c2ccccc2)c2cccc(F)n2)ccc1/C=C(\C#N)C(=O)O [compound 2, (E)-2-Cyano-3-(4-((6-fluoropyridin-2-yl)(phenyl)amino)-2-methoxyphenyl)acrylic Acid] |
